The values below come from patent publication US20090275610A1, “TRICYCLIC OPIOID MODULATORS” (priority 2005, published 2009).

Where two headings read alike, the source gives them in different places.

The target in one assay is T1, delta opioid receptor (Rattus norvegicus, UniProt P33533).
T1 construct: the forebrains were homogenized in Tris buffer in a Teflon®-glass homogenizer; from tissue; host or cells: forebrain of male Wistar rats (particulate membrane preparation)
In words: Rat brain delta opioid receptor binding assay. Particulars: rat forebrain membranes, [3H]DPDPE or [3H]naltrindole, 25° C., 2.5 h. The protocol: Rat Brain Delta Opioid Receptor Binding Assay
(§1) Procedure: Male, Wistar rats (150-250 g, VAF, Charles River, Kingston, N.Y.) were killed by CO2, and their brains removed and placed immediately in ice cold Tris HCl buffer (50 mM, pH 7.4). The forebrains were separated from the remainder of the brain by a coronal transection, beginning dorsally at the colliculi and passing ventrally through the midbrain-pontine junction. After dissection, the forebrains were homogenized in Tris buffer in a Teflon®-glass homogenizer. The homogenate was diluted to a concentration of 1 g of forebrain tissue per 80 mL Tris and centrifuged at 39,000×g for 10 min. The pellet was resuspended in the same volume of Tris buffer containing 5 mM MgCl2 with several brief pulses from a Polytron homogenizer. This particulate preparation was used for the delta opioid binding assays.
Analysis: The data from the scintillation counter were used to calculate either the % inhibition compared to control binding (when only a single concentration of test compound was evaluated) or a Ki value (when a range of concentrations was tested). Percent inhibition was calculated as: [(total dpm−test compound dpm)/(total dpm−nonspecific dpm)]*100. Kd and Ki values were calculated using GraphPad PRISM data analysis program.

The next assay deals with T2, mu opioid receptor (Rattus norvegicus, UniProt P33535).
T2 construct: the forebrains were homogenized in Tris buffer in a Teflon®-glass homogenizer; from tissue; host or cells: forebrain of male Wistar rats (particulate membrane preparation)
As to the kind of experiment: Rat brain mu opioid receptor binding assay. The note with it: rat forebrain membranes, [3H]DAMGO, 25° C., 2.5 h. The protocol:
Rat Brain Mu Opioid Receptor Binding Assay
as §1
Analysis: The data from the scintillation counter were used to calculate either the % inhibition compared to control binding (when only a single concentration of test compound was evaluated) or a Ki value (when a range of concentrations tested). Percent inhibition was calculated as: [(total dpm−test compound dpm)/(total dpm−nonspecific dpm)]*100. Kd and Ki values were calculated using GraphPad PRISM data analysis program.

The mark [1] stands for this setting: read-out: rDOR (Ki, nM): Rat delta opioid receptor binding constant.
[2] abbreviates: read-out: rMOR (Ki, nM): Rat mu opioid receptor binding constant.
The mark [3] stands for this setting: rDOR (Ki, nM): Rat delta opioid receptor binding constant.
Setting [4] is: rMOR (Ki, nM): Rat mu opioid receptor binding constant.

T2 sequence (P33535 whole entry): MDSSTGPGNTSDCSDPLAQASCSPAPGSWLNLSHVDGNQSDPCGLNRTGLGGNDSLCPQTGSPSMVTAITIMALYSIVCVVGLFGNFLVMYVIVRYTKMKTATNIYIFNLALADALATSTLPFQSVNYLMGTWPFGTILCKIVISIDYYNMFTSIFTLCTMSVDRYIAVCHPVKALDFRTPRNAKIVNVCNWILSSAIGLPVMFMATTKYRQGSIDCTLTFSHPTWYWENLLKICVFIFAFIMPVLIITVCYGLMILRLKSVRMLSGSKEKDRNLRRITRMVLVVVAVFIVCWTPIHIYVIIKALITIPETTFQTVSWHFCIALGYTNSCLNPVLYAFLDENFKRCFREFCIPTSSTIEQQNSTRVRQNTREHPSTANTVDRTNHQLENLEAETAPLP
T1 sequence (P33533 whole entry): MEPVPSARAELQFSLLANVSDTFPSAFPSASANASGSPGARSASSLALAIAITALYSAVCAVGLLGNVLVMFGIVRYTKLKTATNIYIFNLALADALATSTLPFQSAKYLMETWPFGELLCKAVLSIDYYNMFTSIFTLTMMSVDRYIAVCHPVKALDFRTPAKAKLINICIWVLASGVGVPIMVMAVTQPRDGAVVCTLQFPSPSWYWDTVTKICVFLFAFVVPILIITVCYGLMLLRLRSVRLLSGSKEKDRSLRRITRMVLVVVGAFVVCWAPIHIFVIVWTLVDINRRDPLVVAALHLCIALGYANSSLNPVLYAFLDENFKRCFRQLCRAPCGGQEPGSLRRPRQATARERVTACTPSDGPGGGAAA

On to `COc1cccc2c1Oc1ccccc1C2=C1CC2CCC(C1)N2` [Cpd 1], for which the Ki came to 3800 nM on delta opioid receptor (setting [1]) and 1790 nM at mu opioid receptor (setting [2]).

Turning to `Oc1cccc2c1Oc1ccccc1C2=C1CC2CCC(C1)N2Cc1cccc2cnccc12` [Cpd 35], the Ki at delta opioid receptor (setting [1]) came out at 180 nM; at mu opioid receptor (setting [2]), 286 nM.

Consider `Clc1ccc(Nc2cccc3c2Oc2ccccc2C3=C2CC3CCC(C2)N3)cc1` [Cpd 61, [9-(8-Azabicyclo[3.2.1]oct-3-ylidene)-9H-xanthen-4-yl]-(4-chlorophenyl)-amine], for which the values for the Ki at delta opioid receptor (setting [3]) and at mu opioid receptor (setting [4]) were 395 nM and 3160 nM, respectively.

`CN1C2CCCC1CC(=C1c3ccccc3Oc3c(O)cccc31)C2` [Cpd 17, 9-(9-Methyl-9-azabicyclo[3.3.1]non-3-ylidene)-9H-xanthen-4-ol]: the Ki at delta opioid receptor (setting [3]) was 132 nM; on mu opioid receptor (setting [4]), 221 nM.

Regarding `CN(C)C(=O)c1cccc2c1Oc1ccccc1C2=C1CC2CCC(C1)N2` [Cpd 11, 9-(8-Azabicyclo[3.2.1]oct-3-ylidene)-9H-xanthene-4-carboxylic acid dimethylamide], the figures for the Ki at delta opioid receptor (setting [3]) and on mu opioid receptor (setting [4]) were 3110 nM and 471 nM, respectively.

`O=C(N1C2CCC1CC(=C1c3ccccc3Oc3c(O)cccc31)C2)C(F)(F)F` (single isomer, unassigned) [Cpd 5, 2,2,2-Trifluoro-1-[3-(4-hydroxy-xanthen-9-ylidene)-8-azabicyclo[3.2.1]oct-8-yl]-ethanone]: the Ki at delta opioid receptor (setting [3]) stood at 2110 nM; at mu opioid receptor (setting [4]), 5620 nM.

`CN(C)CCNC(=O)c1cccc2c1Oc1ccccc1C2=C1CC2CCC(C1)N2` [Cpd 15, 9-(8-Azabicyclo[3.2.1]oct-3-ylidene)-9H-xanthene-4-carboxylic acid (2-dimethylaminoethyl)-amide]: the figures for the Ki on delta opioid receptor (setting [3]) and on mu opioid receptor (setting [4]) were 1420 nM and 336 nM, respectively.

With `CN1CCC(=C2c3ccccc3Oc3c(O)cccc32)CC1` [Cpd 18, 9-(1-Methyl-piperidin-4-ylidene)-9H-xanthen-4-ol], the Ki at delta opioid receptor (setting [3]) stood at 330 nM; on mu opioid receptor (setting [4]), 4610 nM.

For the compound `Oc1cccc2c1Oc1ccccc1C2=C1CC2CCC(C1)N2Cc1csc2ccccc12` [Cpd 33], the results for the Ki at delta opioid receptor (setting [1]) and at mu opioid receptor (setting [2]) were 137 nM and 168 nM, respectively.

Turning to `c1ccc(Nc2cccc3c2Oc2ccccc2C3=C2CC3CCC(C2)N3)cc1` [Cpd 64, [9-(8-Azabicyclo[3.2.1]oct-3-ylidene)-9H-xanthen-4-yl]-phenylamine], the Ki at delta opioid receptor (setting [3]) stood at 862 nM; at mu opioid receptor (setting [4]), 2420 nM.

On to `O=C(NCc1ccccc1)c1cccc2c1Oc1ccccc1C2=C1CC2CCC(C1)N2` (single isomer, unassigned) [Cpd 53, 9-(8-Azabicyclo[3.2.1]oct-3-ylidene)-9H-xanthene-4-carboxylic acid benzylamide], for which the Ki at delta opioid receptor (setting [3]) was found to be 1130 nM; at mu opioid receptor (setting [4]), 2030 nM.

In the case of `Oc1cccc2c1Oc1ccccc1C2=C1CC2CCC(C1)N2Cc1ccoc1` (single isomer, unassigned) [Cpd 57, 9-(8-Furan-3-ylmethyl-8-azabicyclo[3.2.1]oct-3-ylidene)-9H-xanthen-4-ol], the Ki at delta opioid receptor (setting [3]) is 246 nM; on mu opioid receptor (setting [4]) it was 36.5 nM.

As for `N=C(NO)c1cccc2c1Oc1ccccc1C2=C1CC2CCC(C1)N2` (single isomer, unassigned) [Cpd 42, 9-(8-Aza-bicyclo[3.2.1]oct-3-ylidene)-N-hydroxy-9H-xanthene-4-carboxamidine], the figures for the Ki at delta opioid receptor (setting [1]) and at mu opioid receptor (setting [4]) were 237 nM and 56.5 nM, respectively.

Take `CN1C2CCC1CC(=C1c3ccccc3Oc3c(O)cccc31)C2` (single isomer, unassigned) [Cpd 52, 9-(8-Methyl-8-azabicyclo[3.2.1]oct-3-ylidene)-9H-xanthen-4-ol]: the Ki on delta opioid receptor (setting [3]) stood at 323 nM; on mu opioid receptor (setting [4]), 1320 nM.

With `O=C(N1C2CCC1CC(=C1c3ccccc3Oc3c(O)cccc31)C2)C(F)(F)F` (single isomer, unassigned) [Cpd 6, 2,2,2-Trifluoro-1-[3-(4-hydroxy-xanthen-9-ylidene)-8-azabicyclo[3.2.1]oct-8-yl]-ethanone], the Ki at delta opioid receptor (setting [3]) is 8500 nM; at mu opioid receptor (setting [4]) it was above 10000 nM.

For `O=C(NCCc1ccccc1)c1cccc2c1Oc1ccccc1C2=C1CC2CCC(C1)N2` (single isomer, unassigned) [Cpd 55, 9-(8-Azabicyclo[3.2.1]oct-3-ylidene)-9H-xanthene-4-carboxylic acid phenethylamide], the results for the Ki at delta opioid receptor (setting [3]) and at mu opioid receptor (setting [4]) were 100 nM and 200 nM, respectively.

For the compound `O=C(Nc1ccccc1)c1cccc2c1Oc1ccccc1C2=C1CC2CCC(C1)N2` (single isomer, unassigned) [Cpd 47, 9-(8-Azabicyclo[3.2.1]oct-3-ylidene)-9H-xanthene-4-carboxylic acid phenylamide], the Ki on delta opioid receptor (setting [3]) was found to be 250 nM; on mu opioid receptor (setting [4]), 293 nM.

Regarding `c1cncc(Nc2cccc3c2Oc2ccccc2C3=C2CC3CCC(C2)N3)c1` [Cpd 62, [9-(8-Azabicyclo[3.2.1]oct-3-ylidene)-9H-xanthen-4-yl]-pyridin-3-yl-amine], the results for the Ki on delta opioid receptor (setting [3]) and at mu opioid receptor (setting [4]) were 108 nM and 159 nM, respectively.

For the compound `Oc1cccc2c1Oc1ccccc1C2=C1CC2CCC(C1)N2Cc1ccccn1` (single isomer, unassigned) [Cpd 60, 9-(8-Pyridin-2-ylmethyl-8-azabicyclo[3.2.1]oct-3-ylidene)-9H-xanthen-4-ol], the Ki at delta opioid receptor (setting [3]) and on mu opioid receptor (setting [4]) was 0.01 nM each time.

As for `Oc1cccc2c1Oc1ccccc1C2=C1CC2CCC(C1)N2Cc1ccccn1` (single isomer, unassigned) [Cpd 59, 9-(8-Pyridin-2-ylmethyl-8-azabicyclo[3.2.1]oct-3-ylidene)-9H-xanthen-4-ol], the Ki was 0.07 nM on delta opioid receptor (setting [3]) and 0.39 nM on mu opioid receptor (setting [4]).

As for `N=C(NO)c1cccc2c1Oc1ccccc1C2=C1CC2CCC(C1)N2` (single isomer, unassigned) [Cpd 43, 9-(8-Aza-bicyclo[3.2.1]oct-3-ylidene)-N-hydroxy-9H-xanthene-4-carboxamidine], the Ki at delta opioid receptor (setting [1]) and on mu opioid receptor (setting [2]) was above 10000 nM throughout.

On to `NC(=O)c1cccc2c1Oc1ccccc1C2=C1C[C@H]2CC[C@@H](C1)N2C(=O)C(F)(F)F` (single isomer, unassigned) [Cpd 36, (+)-9-[8-(2,2,2-Trifluoroacetyl)-8-azabicyclo[3.2.1]oct-3-ylidene]-9H-xanthene-4-carboxylic acid amide], for which the figures for the Ki on delta opioid receptor (setting [1]) and on mu opioid receptor (setting [2]) were 1790 nM and above 10000 nM, respectively.

Turning to `NC(=O)c1cccc2c1Oc1ccccc1C2=C1C[C@H]2CC[C@@H](C1)N2C(=O)C(F)(F)F` (single isomer, unassigned) [Cpd 38, (−)-9-[8-(2,2,2-Trifluoroacetyl)-8-azabicyclo[3.2.1]oct-3-ylidene]-9H-xanthene-4-carboxylic acid amide], the Ki on delta opioid receptor (setting [1]) is 6440 nM; at mu opioid receptor (setting [2]), above 10000 nM.

With `Oc1cccc2c1Oc1ccccc1C2=C1CC2CCC(C1)N2` (single isomer, unassigned) [Cpd 9, 9-(8-Azabicyclo[3.2.1]oct-3-ylidene)-9H-xanthen-4-ol], the Ki at delta opioid receptor (setting [3]) is 68.2 nM; on mu opioid receptor (setting [4]), 63.6 nM.

As to `Oc1cccc2c1Oc1ccccc1C2=C1CC2CCC(C1)N2Cc1cccnc1` (single isomer, unassigned) [Cpd 49, 9-(8-Pyridin-3-ylmethyl-8-azabicyclo[3.2.1]oct-3-ylidene)-9H-xanthen-4-ol], the Ki at delta opioid receptor (setting [3]) is 62.6 nM; at mu opioid receptor (setting [4]) it was 443 nM.

With `COC(=O)c1cccc2c1Oc1ccccc1C2=C1CC2CCC(C1)N2C(=O)C(F)(F)F` [Cpd 7, 9-[8-(2,2,2-Trifluoroacetyl)-8-azabicyclo[3.2.1]oct-3-ylidene]-9H-xanthene-4-carboxylic acid methyl ester], the Ki on delta opioid receptor (setting [3]) and at mu opioid receptor (setting [4]) was above 10000 nM throughout.
